According to PMC1175024, “Chondrocytes, synoviocytes and dermal fibroblasts all express PH-20, a hyaluronidase active at neutral pH” (Arthritis Research & Therapy, 2005):

Target: T1, PH-20 (sperm adhesion molecule 1), immunopurified from human connective tissue cell layers (Homo sapiens, UniProt P38567)
T1 construct: gene SPAM1; 60-65 kDa; no tag
T1 sequence (P38567 36-490): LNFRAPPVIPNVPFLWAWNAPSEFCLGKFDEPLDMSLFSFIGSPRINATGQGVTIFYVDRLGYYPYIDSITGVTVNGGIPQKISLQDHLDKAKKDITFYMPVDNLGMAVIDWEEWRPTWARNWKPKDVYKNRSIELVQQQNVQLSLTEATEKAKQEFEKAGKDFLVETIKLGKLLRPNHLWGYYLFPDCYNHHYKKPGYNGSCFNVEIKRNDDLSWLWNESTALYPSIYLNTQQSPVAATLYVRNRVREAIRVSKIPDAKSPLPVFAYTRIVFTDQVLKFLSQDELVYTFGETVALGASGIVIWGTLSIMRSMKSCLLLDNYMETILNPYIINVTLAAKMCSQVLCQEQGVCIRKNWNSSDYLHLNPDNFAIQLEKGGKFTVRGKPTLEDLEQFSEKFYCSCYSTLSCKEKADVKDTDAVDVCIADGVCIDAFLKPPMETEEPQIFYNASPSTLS
Assay: hyaluronan substrate gel electrophoresis (zymography)
Assay type: biochemical
Conditions: 5 ug/ml apigenin in DMSO; 0.15 M NaCl, 0.5 mM CaCl2, 7 mM 1,4-saccharolactone; pH 6.5; qualitative inhibition

O=c1cc(-c2ccc(O)cc2)oc2cc(O)cc(O)c12 [apigenin]
activity disappeared: hyaluronidase activity purified from cell layers with the immunoaffinity gel (Api(-), right lane), both disappeared
